One series relates to human PDE4 enzyme. As to the kind of experiment: Phosphodiesterase 4 (PDE4) inhibition, semi-purified enzyme from human U937 cells. It is filed as biochemical. The settings on record: 1 μM cAMP, 20 minutes at 25° C.; read-out: PDE4 IC50.
Series [1] relates to TNF-α in peripheral blood mononuclear cells (PBMCs). Description: TNF-α inhibition in LPS-stimulated peripheral blood mononuclear cells. It is filed as cell-based. Conditions: PBMC; PBMCs, LPS 1 μg/mL for 24 h; read-out: Proinflammatory TNF-α IC50. On the procedure: Peripheral blood mononuclear cells (PBMCs) pooled from 10-20 donors were obtained from a local blood bank, ficoll gradient purified, and stored frozen in liquid nitrogen. Cells were thawed and seeded into 96-well plates at 5×10^5 cells/well in RPMI 1640 with 10% heat-inactivated fetal calf serum (MediaTech, Inc, Hearndon, Va., USA), Test articles were evaluated at the indicated concentrations in 150 μL media containing <2% DMSO, final, with stimulant and PBMCs. Cells were stimulated with lipopolysaccharide (LPS, phenol-extract from E. coli, Sigma-Aldrich, St. Louis, Mo.) at 1 μg/mL. Stimulation was with LPS for 24 h to measure TNF-α. Cytokines in supernatants were analyzed with a FACSArray flow cytometer (BD Biosciences, San Jose, Calif., USA) using the BD Cytometric Bead Array (CBA) Flex Set (BD Biosciences). IC50 values were calculated using the four parameter logistic equation.

A short description of series [2]: Pharmacokinetics and oral bioavailability after IV and PO dosing. It is filed as in vivo, female CD-1 mice. Conditions: plasma; for AUC / bioavailability: female, CD-1, mouse; for AUC: 10 mg/kg oral suspension dose; for clearance: mouse, 5 mg/kg, female CD-1 mice, intravenous; for bioavailability: po. On the procedure:
The objective of this study was to evaluate the pharmacokinetics and oral bioavailability of PDE4 inhibitors following intravenous (IV) administration and oral (PO) doses in female CD-1 mice.
After dosing, blood samples were collected through 24 h, twice from each animal at specific times (3 mice/time point), into microcentrifuge tubes containing K2EDTA (anticoagulant), stored on wet ice and processed for plasma. The plasma samples were analyzed for concentrations of parent compound by LC/MS/MS using an internal standard/peak area method. Pharmacokinetic analysis of the mean plasma concentration-time profiles following IV and PO administration was performed.
[…] Dosing solutions for intravenous administration were prepared in 55% PEG300/25% PG/20% water. Oral dosing used a suspension prepared in 1% CMC in water with 0.1% Tween 80.
After dosing, blood samples were collected through 24 h, twice from each animal via retro-orbital bleed (˜0.1 mL, 1st time point) or cardiac puncture (˜0.6 mL, 2nd time point) at specific times (3 mice/time point), into microcentrifuge tubes containing K2EDTA (anticoagulant) and stored on wet ice prior to processing.
Plasma was prepared by centrifugation of blood samples for 6 min at approximately 2000×g or 6000 rpm at 4° C. All processed plasma samples (˜50 μL and 300 μL) were transferred to analysis tubes, placed on dry ice immediately and later stored at −80° C. until analysis for concentrations of experimental compound by LC/MS/MS.
Mouse IV clearance, Mouse Oral AUC and Oral Bioavailability are provided below. 6-(1-Hydroxy-1,3-dihydrobenzo[c][1,2]oxaborol-5-yloxy)-2-(2-isopropoxyethoxy)nicotinonitrile (D140) and 6-(1-hydroxy-1,3-dihydrobenzo[c][1,2]oxaborol-5-yloxy)-2-(4-oxopentyloxy)nicotinonitrile (D141) are disclosed in U.S. patent application Ser. No. 12/399,015, filed Mar. 5, 2009.

Molecules are shown by their SMILES.

On to `COCC(COc1nc(Oc2ccc3c(c2)COB3O)c(Cl)cc1C#N)OC` (centres unmarked) [Compound D232, 5-Chloro-2-(2,3-dimethoxypropoxy)-6-(1-hydroxy-1,3-dihydrobenzo[c][1,2]oxaborol-5-yloxy)nicotinonitrile], for which the results for the IC50 (in the series on human PDE4 enzyme; in series [1]) were 23 nM and 98 nM, respectively.
As to `N#Cc1cc(Cl)c(Oc2ccc3c(c2)COB3O)nc1OCCOC(F)(F)F` [Compound D235], the IC50 in series [1] worked out at 2.2 nM. Moreover, in series [2], the AUC worked out at 5840 ng·h/mL and the clearance is 20.2 mL/min/kg.
In the case of `CC(=O)CCCOc1nc(Oc2ccc3c(c2)COB3O)c(C2CC2)cc1C#N` [Compound D236, 5-cyclopropyl-6-(1-hydroxy-1,3-dihydrobenzo[c][1,2]oxaborol-5-yloxy)-2-(4-oxopentyloxy)nicotinonitrile], in series [1], the IC50 is 0.34 nM. Besides, in series [2], the bioavailability was 100%, the exposure (AUC) stood at 5620 ng·h/mL and the clearance is 34.2 mL/min/kg.
Take `CC(C)OCCOc1nc(Oc2ccc3c(c2)COB3O)c(C2CC2)cc1C#N` [Compound D237, 5-cyclopropyl-6-(1-hydroxy-1,3-dihydrobenzo[c][1,2]oxaborol-5-yloxy)-2-(2-isopropoxyethoxy)nicotinonitrile]: the half-inhibitory concentration (IC50) in series [1] is 1.5 nM. In series [2], this compound showed a bioavailability of 100%, an AUC of 6920 ng·h/mL and a clearance of 26.8 mL/min/kg.
Regarding `CC(C)OCCOc1nc(Oc2ccc3c(c2)COB3O)c(C(F)(F)F)cc1C#N` [Compound D238, 6-(1-Hydroxy-1,3-dihydrobenzo[e][1,2]oxaborol-5-yloxy)-2-(2-isopropoxyethoxy)-5-(trifluoromethyl)nicotinonitrile], the IC50 in series [1] came out at 1.1 nM. In series [2], the bioavailability stood at 65%, the AUC was 11200 ng·h/mL and the clearance was 9.85 mL/min/kg.
Turning to `N#Cc1cc(Cl)c(Oc2ccc3c(c2)COB3O)nc1OCCOC1CC1` [Compound D239, 5-Chloro-2-(2-cyclopropoxyethoxy)-6-(1-hydroxy-1,3-dihydrobenzo[c][1,2]oxaborol-5-yloxy)nicotinonitrile], the IC50 came to 1.3 nM in the series on human PDE4 enzyme and 0.65 nM in series [1].
As for `N#Cc1cc(Cl)c(Oc2ccc3c(c2)COB3O)nc1OC1CCOCC1` [Compound D240, 5-Chloro-6-(1-hydroxy-1,3-dihydrobenzo[c][1,2]oxaborol-5-yloxy)-2-(tetrahydro-2H-pyran-4-yloxy)nicotinonitrile], the IC50 in series [1] is 3.8 nM.
For the compound `CC(C)OCCOc1nc(Oc2ccc3c(c2)COB3O)cc(C(F)(F)F)c1C#N` [Compound D241, 6-(1-hydroxy-1,3-dihydrobenzo[c][1,2]oxaborol-5-yloxy)-2-(2-isopropoxyethoxy)-4-(trifluoromethyl)nicotinonitrile], the IC50 in the series with human PDE4 enzyme turned out to be 1.1 nM. The IC50 in series [1] was 2.9 nM. In series [2], the bioavailability was found to be 100%, the area under the curve (AUC) amounted to 14900 ng·h/mL and the clearance is 14.2 mL/min/kg.
Consider `CC(=O)CCCOc1nc(Oc2ccc3c(c2)COB3O)cc(C(F)(F)F)c1C#N` [Compound D242, 6-(1-Hydroxy-1,3-dihydrobenzo[c][1,2]oxaborol-5-yloxy)-2-(4-oxopentyloxy)-4-(trifluoromethyl)nicotinonitrile], for which, in the series on human PDE4 enzyme, the IC50 stood at 2.2 nM. The IC50 in series [1] came to 0.21 nM. In series [2], this compound had a bioavailability of 15%, an AUC of 590 ng·h/mL and a clearance of 567 mL/min/kg.
The like results for `CC(C)OCCOc1nc(Oc2ccc3c(c2)COB3O)c(C#N)cc1C#N` [Compound D243, 2-(1-Hydroxy-1,3-dihydrobenzo[c][1,2]oxaborol-5-yloxy)-6-(2-isopropoxyethoxy)pyridine-3,5-dicarbonitrile] were, in that order, 6.5 nM, 1.1 nM, 96%, 3900 ng·h/mL and 50 mL/min/kg.
With `CC(=O)CCCOc1nc(Oc2ccc3c(c2)COB3O)c(C#N)cc1C#N` [Compound D244, 2-(1-Hydroxy-1,3-dihydrobenzo[c][1,2]oxaborol-5-yloxy)-6-(4-oxopentyloxy)pyridine-3,5-dicarbonitrile], the IC50 in series [1] came out at 0.21 nM. In series [2], the bioavailability turned out to be 100%, the AUC worked out at 13600 ng·h/mL and the clearance is 23.3 mL/min/kg.
In the case of `Cc1cc(Oc2nc(OCCOC(C)C)c(C#N)cc2Cl)cc2c1B(O)OC2` [Compound D245, 5-Chloro-6-(1-hydroxy-7-methyl-1,3-dihydrobenzo[c][1,2]oxaborol-5-yloxy)-2-(2-isopropoxyethoxy)nicotinonitrile], the figures for the IC50 (in the series with human PDE4 enzyme; in series [1]) were 2 nM and 26 nM, respectively.
The like results for `CC(=O)CCCOc1nc(Oc2cc(C)c3c(c2)COB3O)c(Cl)cc1C#N` [Compound D246, 5-Chloro-6-(1-hydroxy-7-methyl-1,3-dihydrobenzo[c][1,2]oxaborol-5-yloxy)-2-(4-oxopentyloxy)nicotinonitrile] were, in that order, 1.3 nM and 11 nM.
Consider `CC(C)OCCOc1nc(Oc2cc(F)c3c(c2)COB3O)c(Cl)cc1C#N` [Compound D247, 5-Chloro-6-(7-fluoro-1-hydroxy-1,3-dihydrobenzo[c][1,2]oxaborol-5-yloxy)-2-(2-isopropoxyethoxy)nicotinonitrile], for which the half-maximal inhibitory concentration (IC50) in the series with human PDE4 enzyme came to 19 nM. Besides, the IC50 in series [1] was 2.9 nM. Moreover, in series [2], the bioavailability was 100%, the AUC was 21000 ng·h/mL and the clearance was 18.3 mL/min/kg.
As to `CC(=O)CCCOc1nc(Oc2cc(F)c3c(c2)COB3O)c(Cl)cc1C#N` [Compound D248, 5-Chloro-6-(7-fluoro-1-hydroxy-1,3-dihydrobenzo[c][1,2]oxaborol-5-yloxy)-2-(4-oxopentyloxy)nicotinonitrile], the IC50 in the series on human PDE4 enzyme was found to be 1.7 nM. Moreover, the IC50 in series [1] worked out at 0.93 nM. In series [2], this compound gave a bioavailability of 79%, an AUC of 91000 ng·h/mL and a clearance of 1.83 mL/min/kg.
Consider `CC(C)OCCOc1nc(Oc2cc3c(cc2F)B(O)OC3)c(Cl)cc1C#N` [Compound D249, 5-Chloro-6-(6-fluoro-1-hydroxy-1,3-dihydrobenzo[c][1,2]oxaborol-5-yloxy)-2-(2-isopropoxyethoxy)nicotinonitrile], for which the IC50 in series [1] was determined as 2.3 nM. In series [2], the bioavailability was found to be 100%, the AUC came out at 3300 ng·h/mL and the clearance is 59.1 mL/min/kg.
The like results for `CC(=O)CCCOc1nc(Oc2cc3c(cc2F)B(O)OC3)c(Cl)cc1C#N` [Compound D250, 5-Chloro-6-(6-fluoro-1-hydroxy-1,3-dihydrobenzo[c][1,2]oxaborol-5-yloxy)-2-(4-oxopentyloxy)nicotinonitrile] were, in that order, 0.41 nM, 71%, 17000 ng·h/mL and 7.83 mL/min/kg.
As for `[2H]C1([2H])OB(O)c2ccc(Oc3nc(OCCOC(C)C)c(C#N)cc3Cl)cc21` [Compound D251, 5-Chloro-6-(3,3-dideuterio-1-hydroxy-1,3-dihydrobenzo[c][1,2]oxaborol-5-yloxy)-2-(2-isopropoxyethoxy)nicotinonitrile], the IC50 in series [1] came out at 2.3 nM. In addition, in series [2], the AUC is 6300 ng·h/mL and the clearance was 44.5 mL/min/kg.
As to `CC(C)OCCOc1nc(Oc2ccc3c(c2)C(C)OB3O)c(Cl)cc1C#N` (centres unmarked) [Compound D252, 5-Chloro-6-(1-hydroxy-3-methyl-1,3-dihydrobenzo[c][1,2]oxaborol-5-yloxy)-2-(2-isopropoxyethoxy)nicotinonitrile], the IC50 in series [1] is 160 nM.
With `CC(=O)CCCOc1nc(Oc2ccc3c(c2)COB3O)c(C#N)cc1Cl` [Compound D253, 5-Chloro-2-(1-hydroxy-1,3-dihydrobenzo[c][1,2]oxaborol-5-yloxy)-6-(4-oxopentyloxy)nicotinonitrile], the IC50 was 0.25 nM with human PDE4 enzyme and 0.57 nM in series [1].
As to `CC(C)OCCOc1nc(Oc2cc(F)c3c(c2)COB3O)cc(C(F)(F)F)c1C#N` [Compound D254, 6-(7-fluoro-1-hydroxy-1,3-dihydrobenzo[c][1,2]oxaborol-5-yloxy)-2-(2-isopropoxyethoxy)-4-(trifluoromethyl)nicotinonitrile], in series [1], the IC50 is 3.5 nM. In series [2], the bioavailability turned out to be 58%, the AUC is 110000 ng·h/mL and the clearance is 1.05 mL/min/kg.

As a reminder, the IC50 is the midpoint of a concentration-inhibition curve. A word on the AUC: it is concentration integrated over time. By bioavailability is commonly meant dose-corrected exposure relative to a reference, in per cent.
